Assay results published in US10870647B2, “Imidazopyridine derivative, method for preparing same, and pharmaceutical composition containing same as active ingredient for preventing or treating cancer” (DAEGU-GYEONGBUK MEDICAL INNOVATION FOUNDATION, priority 2016, dated 2020).

How the values were obtained:
Assay in all cases: Kinase selectivity, scanMAX Kinase assay panel (DiscoverX), % control at 1 uM
Assay type in all cases: binding
[1] = molecular target: T1, scanMAX Kinase assay panel (Homo sapiens, UniProt Q6PHR2); details: ULK3; 1 uM; read-out: Percent Control (%)
T1 construct: purchased DiscoverX
T1 sequence (Q6PHR2 1-472): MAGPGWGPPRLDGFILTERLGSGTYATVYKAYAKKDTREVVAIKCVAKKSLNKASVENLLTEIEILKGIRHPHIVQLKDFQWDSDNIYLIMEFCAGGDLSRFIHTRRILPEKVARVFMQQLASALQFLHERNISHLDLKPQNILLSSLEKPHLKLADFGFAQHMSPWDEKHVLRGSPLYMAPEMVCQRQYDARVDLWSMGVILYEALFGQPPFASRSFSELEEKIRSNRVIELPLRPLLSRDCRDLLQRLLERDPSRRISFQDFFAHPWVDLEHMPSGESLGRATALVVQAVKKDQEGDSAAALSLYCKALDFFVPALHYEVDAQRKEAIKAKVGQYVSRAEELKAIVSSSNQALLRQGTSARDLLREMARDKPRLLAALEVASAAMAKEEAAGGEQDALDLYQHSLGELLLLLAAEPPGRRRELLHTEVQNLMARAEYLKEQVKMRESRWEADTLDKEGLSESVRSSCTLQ
Summary of the method: (§1)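 A single concentration of 1 uM, in DMSO, is applied across the kinase panel. Activity against an individual enzyme is assigned where % control is less than 35.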

[2] = molecular target: T2, scanMAX Kinase assay panel (Homo sapiens, UniProt P45984); details: JNK2; 1 uM; read-out: Percent Control (%)
T2 construct: purchased DiscoverX
Summary of the method: as §1

[3] = molecular target: T3, scanMAX Kinase assay panel (Homo sapiens, UniProt O14936); details: CASK; 1 uM; read-out: Percent Control (%)
T3 construct: purchased DiscoverX
T3 sequence (O14936 1-926): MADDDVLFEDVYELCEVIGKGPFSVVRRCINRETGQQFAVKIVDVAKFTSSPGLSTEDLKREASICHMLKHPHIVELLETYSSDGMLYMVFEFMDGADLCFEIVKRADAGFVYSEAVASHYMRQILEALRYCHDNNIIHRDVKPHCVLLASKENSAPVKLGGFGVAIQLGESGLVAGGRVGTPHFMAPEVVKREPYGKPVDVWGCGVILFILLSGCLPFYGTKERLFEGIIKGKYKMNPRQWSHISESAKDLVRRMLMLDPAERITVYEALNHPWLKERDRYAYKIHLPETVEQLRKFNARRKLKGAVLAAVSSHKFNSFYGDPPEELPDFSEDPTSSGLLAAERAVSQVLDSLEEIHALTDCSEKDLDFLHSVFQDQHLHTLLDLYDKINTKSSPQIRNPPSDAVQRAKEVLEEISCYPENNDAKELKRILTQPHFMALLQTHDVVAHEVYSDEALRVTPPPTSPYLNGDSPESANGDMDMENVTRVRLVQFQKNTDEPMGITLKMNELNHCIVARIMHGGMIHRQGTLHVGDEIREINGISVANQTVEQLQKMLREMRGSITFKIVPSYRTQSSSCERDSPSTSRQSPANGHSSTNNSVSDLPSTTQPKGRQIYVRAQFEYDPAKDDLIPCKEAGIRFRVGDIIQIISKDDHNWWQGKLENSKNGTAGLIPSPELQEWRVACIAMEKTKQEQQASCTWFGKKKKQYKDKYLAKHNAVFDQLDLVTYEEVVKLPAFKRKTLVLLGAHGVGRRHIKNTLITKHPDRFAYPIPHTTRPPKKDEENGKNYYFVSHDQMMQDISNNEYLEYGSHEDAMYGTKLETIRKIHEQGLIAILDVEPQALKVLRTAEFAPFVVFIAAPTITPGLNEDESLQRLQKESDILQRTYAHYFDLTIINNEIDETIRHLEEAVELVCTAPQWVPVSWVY
Summary of the method: as §1

[4] = molecular target: T4, scanMAX Kinase assay panel (Homo sapiens, UniProt Q9BRS2); details: RIOK1; 1 uM; read-out: Percent Control (%)
T4 construct: purchased DiscoverX
T4 sequence (Q9BRS2 1-568): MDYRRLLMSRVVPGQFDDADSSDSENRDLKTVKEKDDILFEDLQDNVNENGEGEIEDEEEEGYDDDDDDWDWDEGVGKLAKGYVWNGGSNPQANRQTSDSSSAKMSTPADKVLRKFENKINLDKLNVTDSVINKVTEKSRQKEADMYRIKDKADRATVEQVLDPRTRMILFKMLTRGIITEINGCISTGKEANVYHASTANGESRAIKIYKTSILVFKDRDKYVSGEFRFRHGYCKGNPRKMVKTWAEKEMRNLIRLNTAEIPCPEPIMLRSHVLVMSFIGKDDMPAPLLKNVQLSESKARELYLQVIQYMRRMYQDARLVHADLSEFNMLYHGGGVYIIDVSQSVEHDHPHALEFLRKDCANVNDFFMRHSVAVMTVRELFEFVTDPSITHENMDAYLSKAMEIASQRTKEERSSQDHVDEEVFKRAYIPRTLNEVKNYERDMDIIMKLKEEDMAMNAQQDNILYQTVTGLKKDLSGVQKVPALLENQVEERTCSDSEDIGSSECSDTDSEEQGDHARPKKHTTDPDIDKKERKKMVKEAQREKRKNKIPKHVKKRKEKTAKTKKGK
Summary of the method: as §1

T2 sequence (P45984 whole entry): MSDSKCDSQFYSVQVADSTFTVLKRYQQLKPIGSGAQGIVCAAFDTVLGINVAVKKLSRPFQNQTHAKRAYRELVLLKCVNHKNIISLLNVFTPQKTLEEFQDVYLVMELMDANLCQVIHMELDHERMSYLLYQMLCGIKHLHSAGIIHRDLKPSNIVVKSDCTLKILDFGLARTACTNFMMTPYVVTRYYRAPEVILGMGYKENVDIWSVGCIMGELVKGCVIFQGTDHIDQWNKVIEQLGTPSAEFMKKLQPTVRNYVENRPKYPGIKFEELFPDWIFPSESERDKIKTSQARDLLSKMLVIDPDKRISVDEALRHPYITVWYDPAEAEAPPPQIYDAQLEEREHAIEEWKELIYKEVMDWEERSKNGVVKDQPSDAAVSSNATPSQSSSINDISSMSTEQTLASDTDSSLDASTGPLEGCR

SMILES | remaining binding at 1 µM [1] | remaining binding at 1 µM [2] | remaining binding at 1 µM [3] | remaining binding at 1 µM [4]
Cc1ccc(NC(=O)C2(C(=O)Nc3ccc(F)cc3)CC2)cc1C#Cc1cnc2c(Nc3cnn(C(C)C)c3)cccn12 [Example 78] | 100% | 100% | 100% | 100%
Cc1cn(-c2cc(NC(=O)c3ccc(C)c(C#Cc4cnc5c(Nc6cnn(C)c6)cccn45)c3)cc(C(F)(F)F)c2)cn1 [Example 12, 4-methyl-N-(3-(4-methyl-1H-imidazol-1-yl)-5-(trifluoromethyl)phenyl)-3-((8-((1-methyl-1H-pyrazol-4-yl)amino)imidazo[1,2-a]pyridin-3-yl)ethynyl)benzamide] | 91% | 66% | 90% | 91%
Cc1ccc(C(=O)Nc2ccc(CN3CCN(C)CC3)c(C(F)(F)F)c2)cc1C#Cc1cnc2c(Nc3cnn(C)c3)cccn12 [Example 1, 4-methyl-3-((8-((1-methyl-1H-pyrazol-4-yl)amino)imidazo[1,2-a]pyridin-3-yl)ethynyl)-N-(4-((4-methylpiperazin-1-yl)methyl)-3-(trifluoromethyl)phenyl)benzamide] | 1% | 0% | 74% | 77%
